Assays:
MCF7/S tumor xenograft = assay: FASTSPECT dynamic imaging and tumor washout kinetics, drug-sensitive xenograft; type: in vivo, SCID mice
Procedure: (§1) Tumor cell lines used. MCF7/S: Cells are parental, drug (doxorubicin) sensitive, breast carcinoma cells. MCF7/D40: Cells were generated in vitro by successive culturing parental MCF7 cells in slowly increasing concentrations of doxorubicin with a total selection time of 31 months. Twenty-eight SCID mice were studied. MCF7/S or MCF7/D40 tumors were grown for 10-14 days after subcutaneous injection of 1×10^6 cells into the right thigh. Groups of mice with the xenografted tumors included: (MCF7/S group: MIBI: n=9; GLA: n=8) and (MCF7/D40 group: MIBI: n=6; GLA: n=5).
(§2) The dynamic imaging system SPECT consisted of 24 small modular gamma cameras. Each modular camera consists of a 10 cm×10 cm NaI(Tl) scintillation crystal, 4 square (5 cm×5 cm) Hamamatsu photomultiplier tubes. The system included a cylindrical aperture with twenty four 1-mm diameter pinholes drilled in the aperture. A point source in the center of the field of view is projected simultaneously to the center of each camera. Total magnification is 3.5 in a 3.0 cm×3.2 cm×3.2 cm field of view. The spatial resolution of the system is about 1.0 mm, with a sensitivity of 13.3 cps/μCi.
(§3) ^99mTc-GLA or ^99mTc-MIBI (5-8 mCi, 185-296 MBq) was injected via a jugular vein catheter. Dynamic images were acquired for 2 hours. Twenty-four projections were obtained, one from each camera. Each scintillation event within the camera's NaI crystal was registered as the digitized outputs from the camera's four photomultiplier tubes. The four photomultiplier outputs were compared to a 20-bit look-up table derived from a calibration procedure that involved moving a collimated source across the camera face.
(§4) Tumor image reconstruction was performed using 100 iterations of the maximum-likelihood expectation-maximization (ML-EM) algorithm. Using SlicerDicer software, three-dimensional images were computed to provide images in a 33×49×49 voxels format, and generate tomographic transaxial, coronal and sagittal slices with one-pixel thickness (1.0 mm). Regions of interest (ROI) over the tumors were created and applied to the dynamic images for determining time-activity curves. The percent washout rate relative to the peak uptake of the tumors were calculated.

MCF7/S tumors = assay: Biodistribution in mice bearing MCF7/S tumors; type: in vivo, SCID mice
Procedure: as §1, §3
Tumors and organs were harvested and counted in a dose calibrator. The percent injected dose per gram (% ID/g) was calculated. Membrane preparations made from MCF7/S and MCF7/D40 tumors were immunoblotted with the mouse monoclonal antibody C219 against Pgp followed by a secondary antibody, which was detected by chemiluminescence. […] No immunodetectable MDR1 Pgp was presented in MCF7/S cells.

MCF7 breast tumors = assay: FASTSPECT dynamic imaging of MCF7 tumor xenografts (MCF7/S and MCF7/D40 together); type: in vivo, SCID mice
Procedure: as §1, §2, §3, §4

[1] = test system: plasmocytoma (localized myeloma); assay: Scintigraphy of a patient with plasmocytoma of T8; type: in vivo, human
Procedure: A patient complaining of invalidation pain in the spine (mid-thorax) for about two months. Peak of monoclonal IgG-k in serum. Bence-Jones protein in urine. Spine CT. lytic lesion of T8, with soft tissue infiltration. […] Uptake was obvious in the early images, 15 and 30 min p.i., late acquisition, 6 hr p.i., made the tracer uptake much more obvious.

[2] = Table 2, MCF7/S mice, 2 hours after injection
[3] = Table 4 (Example 3), MCF7/S mice

With ^99mTc-glucarate the “two-hour fractional washout (% peak activity)” value (MCF7/S tumor xenograft) was 72.8±3.1%, the “time after injection at which tumor was first visualized/detected” value (MCF7/S tumor xenograft; FASTSPECT) was no more than 5 min and the “time after injection until which tumor stayed visualized/detectable” value (MCF7/S tumor xenograft; FASTSPECT, 120 min acquisition) was “at least 120 min”. The “tumor-to-muscle ratio relative to that for 99mTc-sestamibi (fold higher)” value (MCF7/S tumors; MCF7/S tumors, 2 hours after injection) was 9.4 fold, the “Biodistribution, blood” value (MCF7/S tumors; [2]) was 1.13 ± 0.16 % ID/gm and the “Biodistribution, heart” value (MCF7/S tumors; [2]) was 0.64 ± 0.08 % ID/gm. For the same substance, the “Biodistribution, kidneys” value (MCF7/S tumors; [2]) was 22.70 ± 1.38 % ID/gm, the “Biodistribution, liver” value (MCF7/S tumors; [2]) was 2.04 ± 0.37 % ID/gm and the “Biodistribution, lung” value (MCF7/S tumors; [2]) was 1.08 ± 0.10 % ID/gm. The “Biodistribution, muscle” value (MCF7/S tumors; [2]) was 0.27 ± 0.02 % ID/gm, the “Biodistribution, tumor” value (MCF7/S tumors; [2]) was 1.15 ± 0.17 % ID/gm and the “Biodistribution, blood” value (MCF7/S tumors; [3]) was 1.19 ± 0.17 % ID/g. For the same substance, the “Biodistribution, heart” value (MCF7/S tumors; [3]) was 0.70 ± 0.09 % ID/g, the “Biodistribution, kidneys” value (MCF7/S tumors; [3]) was 22.59 ± 1.38 % ID/g and the “Biodistribution, liver” value (MCF7/S tumors; [3]) was 2.10 ± 0.35 % ID/g. The “Biodistribution, lung” value (MCF7/S tumors; [3]) was 1.15 ± 0.11 % ID/g, the “Biodistribution, muscle” value (MCF7/S tumors; [3]) was 0.29 ± 0.02 % ID/g and the “Biodistribution, tumor” value (MCF7/S tumors; [3]) was 1.16 ± 0.17 % ID/g. For the same substance, the Tumor/Blood ratio (MCF7/S tumors; [3]) was 1.13 ± 0.23, the Tumor/Muscle ratio (MCF7/S tumors; [3]) was 4.37 ± 0.89 and the mean tumor-to-muscle ratio (MCF7/S tumors; drug-sensitive tumors (MCF7/S)) was 4.5. The “time tumors remained detectable after injection” value (MCF7 breast tumors; Example 3) was “at least 2 hrs”, the “time to initial visualization of tumors after injection” value (MCF7 breast tumors; FASTSPECT imaging, all tumors of the glucarate groups, i.v.) was no more than 5 min and the “time to unequivocal localization/visualization of tumors after injection” value (MCF7 breast tumors; FASTSPECT imaging, i.v.) was 10 to 30 min. The “time radioactive accumulation in the MCF7 tumors remained post-injection” value (MCF7 breast tumors; dynamic images) was “at least 120 minutes”, the “scan finding at diagnosis” value ([1]; patient with lytic lesion of T8, posterior view) was “focally increase tracer uptake in the bone lesion and in soft tissue” and the “scan finding after about 1 year of stabilization and external radiotherapy” value ([1]; posterior view) was “normal physiologic tracer distribution, without areas of focally increased uptake”.

Source: US20050152835A1, “Technetium-99M glucarate methods of use for monitoring tissues” (priority 2003, published 2005)
